Consider 3 compounds from patent US20110070174A1, “Benzoyl Peroxide and Sunscreen Agent Combination” (PruGen IP Holdings, Inc., priority 2009, published 2011).

What all share (type): physicochemical
The nature of data set [1]: Stability Study 1: BPO/sunscreen mixture, one month at room temperature. Particulars: for 1 MONTH-RT (content) / 1 MONTH-RT (percent of initial, in brackets): Study 1, 1 month room temperature; for % INITIAL (percent of initial, in brackets) / % INITIAL (content): Study 1, initial; for % INITIAL (content): in BPO/sunscreen mixture. An excerpt:
(§1) The stability provided by using the above formula and mixing process has heretofore been unmatched.

A short description of data set [2]: Stability of sunscreen base and benzoyl peroxide each before mixing. Particulars: each agent separately, one-month repeatable studies.
Source text: as §1

Data set [3] can be described thus: Stability Study 4: BPO/sunscreen mixture, one month at room temperature. Particulars: for 1 MONTH-RT (content) / 1 MONTH-RT (percent of initial, in brackets): Study 4, 1 month room temperature; for % INITIAL (percent of initial, in brackets) / % INITIAL (content): Study 4, initial; for % INITIAL (content): in BPO/sunscreen mixture.
Source text: as §1

Data set [4] in a line: Multiple one-month room temperature studies after mixing the agents together. The settings on record: BPO at various percentages.
Source text: as §1

A short description of data set [5]: Stability Study 2: BPO/sunscreen mixture, one month at room temperature. Particulars: for 1 MONTH-RT (content) / 1 MONTH-RT (percent of initial, in brackets): Study 2, 1 month room temperature; for % INITIAL (percent of initial, in brackets) / % INITIAL (content): Study 2, initial; for % INITIAL (content): in BPO/sunscreen mixture.
Source text: as §1

Data set [6] can be described thus: Stability Study 3: BPO/sunscreen mixture, one month at room temperature. The settings on record: for 1 MONTH-RT (content) / 1 MONTH-RT (percent of initial, in brackets): Study 3, 1 month room temperature; for % INITIAL (percent of initial, in brackets) / % INITIAL (content): Study 3, initial; for % INITIAL (content): in BPO/sunscreen mixture.
Source text: as §1

Consider `O=C(OOC(=O)c1ccccc1)c1ccccc1` [BPO, Benzoyl peroxide], for which, in data set [1], the “1 MONTH-RT (content)” value stood at 7.76%; the “1 MONTH-RT (percent of initial, in brackets)” value is reported as 108%; the “% INITIAL (percent of initial, in brackets)” value came to 100%; the “% INITIAL (content)” value is recorded as 7.16%. Moreover, the “stability of each agent” value in data set [2] is listed as “stable for at least one year”. For the same compound, in data set [3], the “1 MONTH-RT (content)” value came out at 7.76%; the “1 MONTH-RT (percent of initial, in brackets)” value is on record as 108%; the “% INITIAL (percent of initial, in brackets)” value was 100%; the “% INITIAL (content)” value amounted to 7.16%. For the same compound, the potency after mixing entry in data set [4] was “remained at full potency”. Further, in data set [5], the “1 MONTH-RT (content)” value is given as 8.07%; the “1 MONTH-RT (percent of initial, in brackets)” value turned out to be 94%; the “% INITIAL (percent of initial, in brackets)” value stood at 100%; the “% INITIAL (content)” value turned out to be 8.55%. For the same compound, in data set [6], the “1 MONTH-RT (content)” value turned out to be 6.48%; the “1 MONTH-RT (percent of initial, in brackets)” value was 107%; the “% INITIAL (percent of initial, in brackets)” value stood at 100%; the “% INITIAL (content)” value worked out at 6.02%.
Regarding `COc1ccc(C(=O)CC(=O)c2ccc(C(C)(C)C)cc2)cc1` [Avobenzone], in data set [5], the “1 MONTH-RT (content)” value turned out to be 2.78%; the “1 MONTH-RT (percent of initial, in brackets)” value was found to be 86%; the “% INITIAL (percent of initial, in brackets)” value came to 100%; the “% INITIAL (content)” value is reported as 3.23%. Moreover, in data set [6], the “1 MONTH-RT (content)” value is reported as 2.69%; the “1 MONTH-RT (percent of initial, in brackets)” value is reported as 91.5%; the “% INITIAL (percent of initial, in brackets)” value is given as 100%; the “% INITIAL (content)” value turned out to be 2.94%.
For the compound `CCCCC(CC)COC(=O)C(C#N)=C(c1ccccc1)c1ccccc1` (stereo not shown) [Octocrylene], in data set [1], the “1 MONTH-RT (content)” value was determined as 6.42%; the “1 MONTH-RT (percent of initial, in brackets)” value is 101%; the “% INITIAL (percent of initial, in brackets)” value was 100%; the “% INITIAL (content)” value is on record as 6.33%. In addition, in data set [3], the “1 MONTH-RT (content)” value is 6.42%; the “1 MONTH-RT (percent of initial, in brackets)” value is reported as 101%; the “% INITIAL (percent of initial, in brackets)” value is 100%; the “% INITIAL (content)” value came out at 6.33%.
